# pIC50: −log10 of the molar value.
# What was measured:
# APP = APP expression and processing (real-time PCR, western blot) in J20 hippocampus; type: in vivo, mouse
# Description: (§1) VX-765 (Adooq Bioscience, Irvine, CA, USA) was dissolved 5 mg • ml^−1 in 20% cremophor in dH2O[60] (Sigma-Aldrich, ON, Canada) and administered IPWT and J20 mice received three injections per week of either 50 mg • kg^−1 VX-765 or 20% cremophor vehicle for 4 weeks between 2 and 3 months of age. Mice were longitudinally followed starting 4 weeks after the last injection [4-week washout (WO)], then every other month at 12- and 20-week WO (6 and 8 months of age, respectively). Intermediate 8- and 16-week WO periods were also looked at with a smaller number of mice. After each WO period, animals were randomly chosen, independent of behavioural performance, for sacrifice and assigned to either histological or biochemical analysis (Fig. 2a).
# Mice for biochemical analyses were isoflurane anesthetized, sacrificed by cervical dislocation, and the hippocampus and cortex dissected out and immediately frozen on dry ice. Brain tissue was homogenized in radioimmunoprecipitation assay (RIPA) buffer (50 mM Tris-HCl pH: 7.4, 1% NP-40, 0.25% Na-deoxycholate, 150 mM NaCl, 1 mM EDTA, with protease inhibitors), and supernatants placed in Laemmli (5% 2-β mercaptoethanol with protease inhibitors).
# (§2) Twenty to sixty micrograms of protein or 16 μl of precipitated protein from culture medium were separated on SDS-PAGE or 4–12% NuPAGE Bis-Tris gels (Invitrogen, Carlsbad, CA, USA) with MES buffer (Invitrogen) and transferred onto PVDF membranes (Bio-Rad) according to the manufacturer’s instructions. […] Protein levels were normalized to β-actin and expressed as a percentage relative to the vehicle-treated WT group, except for APP which was compared to the vehicle-treated J20 group. […]
# RNA was extracted with Qiazol and purified using the miRNeasy mini kit (Qiagen, CA, USA). RNA quality and quantity were determined using a spectrophotometer (DS-11 FX+, DeNovix, DE, USA) and RNA was reverse transcribed using First Strand cDNA Synthesis Kit (Qiagen) following the manufacturer’s protocol. […]
# CD68 = CD68 immunostaining of phagocytic microglia and macrophages; type: in vivo, mouse; conditions: VX-765-treated J20; 20-week WO; no staining in any vehicle-treated J20
# Description: as §1
# (§3) Mice for immunohistochemistry were isoflurane anesthetized and perfused with ice-cold 4% paraformaldehyde in 0.1 M PBS (Sigma-Aldrich). Brains were post-fixed overnight in 10% neutral-buffered formalin (ThermoFisher Scientific, ON, Canada) and transferred to 70% ethanol for paraffin embedding and sectioning at 4 μm. Tissue slides underwent heat-induced antigen retrieval with citrate or EDTA buffer. Immunostaining was performed using the Dako Autostainer Plus slide processor and EnVision Flex system (Dako, ON, Canada). […]
# GFAP = GFAP astrogliosis (western blot, immunostaining); type: in vivo, mouse
# Description: as §1
# as §3, with “buffer.” for “buffer. Immunostaining was performed using the Dako Autostainer Plus slide processor and EnVision Flex system (Dako, ON, Canada).”
# Iba1-positive microglia were quantified using a modified version of an area-specific counting frame. […] Microglial activation level was determined based on morphological measurements[19],[41]. Aβ1-40 and GFAP immunostaining density was measured across four sections using ImageJ software (NIH, Bethesda, MD, USA). Quantification was blinded to treatment and genotype.
# as §2
# [1] = test system: Nlrp1, Nlrp3, Asc, Casp1, Casp6, Casp11, Casp3; assay: inflammasome and caspase expression (PCR, Casp1 western blot); type: in vivo, mouse
# Description: as §1
# Twenty to sixty micrograms of protein or 16 μl of precipitated protein from culture medium were separated on SDS-PAGE or 4–12% NuPAGE Bis-Tris gels (Invitrogen, Carlsbad, CA, USA) with MES buffer (Invitrogen) and transferred onto PVDF membranes (Bio-Rad) according to the manufacturer’s instructions. Membranes were probed with the following antibodies: 1:1000 mouse anti-Aβ1-16 (6E10) (BioLegend, CA, USA), 1:2000 rabbit anti-APP C-terminus (A8717) (Sigma-Aldrich), 1:1000 rabbit anti-neprilysin (Nep, Abcam, ON, Canada), 1:500 rabbit anti-insulin degrading enzyme (IDE, Abcam), 1:3000 rabbit anti-GFAP (Dako), 1:1000 rabbit anti-IL-1β (Abcam), 1:1000 rat anti-Caspase-1 (clone 4B4.2.1, kindly provided by Genentech, San Francisco, CA, USA) and 1:1000 mouse anti-β-actin (Sigma-Aldrich). […] Signals were visualized with the ImageQuant LAS 4000 imaging system and densitometric analyses were performed with Image Gauge analysis software 3.0 (Fujifilm USA, NY, USA). Protein extracts from three independent mice in each group were run together on each blot. Protein levels were normalized to β-actin and expressed as a percentage relative to the vehicle-treated WT group, except for APP which was compared to the vehicle-treated J20 group. Representative full blots are shown in the Source data file. […]
# [2] = female, C57BL/6J, mouse, in vivo, ip, 50 mg/kg, 0.25 h
# Description: Plasma, whole brain and CSF concentrations of VX-765 and its active metabolite, VRT-043198, were determined by LC-MS/MS at Paraza Pharma (Montreal, QC, Canada). Fourteen C57BL/6J female mice received a single IP dose of 50 mg · kg^−1 VX-765 and 2 mice per time point were euthanized at 0.25, 0.5, 1, 3, 6, 8 and 24 h post-injection. Mice were isoflurane anesthetized to collect CSF and perform a cardiac puncture followed by whole body perfusion with PBS. Plasma samples were extracted 1:1 in spiking solution and internal standard solution containing 0.1 μM glyburide in acetonitrile. Brain and CSF samples were extracted 1:1 in spiking solution and internal standard solution containing 0.2 μM labetalol in 50:50 methanol:acetonitrile. Samples were centrifuged at 4000 × g for 10 min at 4 °C, the plasma supernatant diluted 1:1 and the brain and CSF supernatant diluted 1:2 in H2O, and 5 μl was injected into a Quantis LC-MS/MS system for analysis.
# Casp1 = test system: Casp1; set-up: method as in PMID 30254377; conditions: in vitro Casp1; cited from earlier work
# [3] = cited from earlier work
# [4] = set-up: method as in PMID 30254377; conditions: cited from earlier work
# J20 mice = test system: J20 mice; set-up: method as in PMID 30254377; conditions: cited from earlier work
# CD4 T-cell = test system: CD4 T-cell; set-up: method as in PMID 24356306; conditions: HIV; cited from earlier work
# [5] = test system: experimental allergic encephalitis multiple sclerosis mouse model; set-up: method as in PMID 29895691; conditions: cited from earlier work
# alpha-synuclein = test system: alpha-synuclein; set-up: method as in PMID 27482083; conditions: in vitro; cited from earlier work
smiles,measurement,setting,value
"CCO[C@@H]1OC(=O)C[C@@H]1NC(=O)[C@@H]1CCCN1C(=O)[C@@H](NC(=O)c1ccc(N)c(Cl)c1)C(C)(C)C [VX-765, (S)-1-((S)-2-{[1-(4-amino-3-chloro-phenyl)-methanoyl]-amino}-3,3-dimethyl-butanoyl)-pyrrolidine-2-carboxylic acid ((2R,3S)-2-ethoxy-5-oxo-tetrahydro-furan-3-yl)-amide]",APP protein levels (anti-APP C-terminal antibody),APP; 4- and 20-week WO,not affected
same,βCTF and αCTF levels,"APP; 4- or 20-week WO, vehicle vs VX-765",no differences in βCTF and αCTF levels
same,human APP mRNA levels,"APP; 4-, 12- or 20-week WO",did not alter
same,mice with CD68 positive staining,CD68,four out of the five
same,delay of GFAP astrogliosis,GFAP; J20,3 months
same,immunopositive GFAP astrogliosis,GFAP; J20 hippocampus and cortex,"prevented astrogliosis until 8- and 12-week WO in the hippocampus and cortex, respectively"
same,hippocampal GFAP levels (western blot),"GFAP; J20 hippocampus, 4- and 20-week WO",normalized with VX-765 treatment only at 20-week WO
same,full-length Casp1 levels (western blot),"[1]; J20 cortex, 20-week WO","reduced full-length Casp1 levels slightly compared to vehicle-treated J20 mice, but this did not reach statistical significance"
same,"Casp1, Casp6, Casp11 and Casp3 hippocampal mRNA levels",[1]; hippocampus,no differences were observed
same,"Nlrp1, Nlrp3 and Asc hippocampal mRNA levels","[1]; hippocampus, vehicle WT, vehicle J20, VX-765 J20",did not differ between the three treatment groups at any of the WO periods
same,CSF concentration relative to respective in vitro Casp1 IC50,[2],100 fold
same,brain concentration relative to respective in vitro Casp1 IC50,[2],50 fold
same,plasma concentration relative to respective in vitro Casp1 IC50,[2],100 fold
same,pIC50,Casp1,8.43
same,in vitro half-life (t1/2),[3],~ 157 h
same,concentration in the J20 brain,"[4]; 50 mg/kg dose of VX-765, carotid infusion, J20 mice",2000 to 5000 nM
same,blood–brain barrier permeability,[4],blood–brain barrier permeable
same,toxicity,J20 mice,non-toxic
same,"memory deficits, inflammation, synaptic loss and Aβ accumulation",J20 mice; given at the onset of the J20 mouse symptoms,"reverses spatial and episodic memory deficits, inflammation and synaptic loss, and prevents progressive Aβ accumulation"
same,"inflammation, CD4 T-cell death and pyroptosis",CD4 T-cell,reduce inflammation by suppressing CD4 T-cell death and pyroptosis in HIV
same,"inflammasome-related gene expression, axonal injury, behaviour",[5],"reduce inflammasome-related gene expression, axonal injury, improve behaviour"
same,alpha-synuclein toxicity,alpha-synuclein,protect against alpha-synuclein toxicity

# Source: publication PMC7486940, “Pre-symptomatic Caspase-1 inhibitor delays cognitive decline in a mouse model of Alzheimer disease and aging” (Nature Communications, 2020)
